Consider three molecules from PMC2974439 (Biochemistry, 2010).

One data set has as its target EntF+YbdZ (Escherichia coli, UniProt P11454). In words: substrate activation assay. Type of data set: biochemical. Particulars: co-purified with YbdZ; two values for two different preparations.
A further data set deals with EntF (EntF-H6) (Escherichia coli, UniProt P11454). In words: substrate activation assay. The class given is biochemical. Particulars: without YbdZ; two values for two different preparations.
Chain of EntF (EntF-H6) (P11454 whole entry): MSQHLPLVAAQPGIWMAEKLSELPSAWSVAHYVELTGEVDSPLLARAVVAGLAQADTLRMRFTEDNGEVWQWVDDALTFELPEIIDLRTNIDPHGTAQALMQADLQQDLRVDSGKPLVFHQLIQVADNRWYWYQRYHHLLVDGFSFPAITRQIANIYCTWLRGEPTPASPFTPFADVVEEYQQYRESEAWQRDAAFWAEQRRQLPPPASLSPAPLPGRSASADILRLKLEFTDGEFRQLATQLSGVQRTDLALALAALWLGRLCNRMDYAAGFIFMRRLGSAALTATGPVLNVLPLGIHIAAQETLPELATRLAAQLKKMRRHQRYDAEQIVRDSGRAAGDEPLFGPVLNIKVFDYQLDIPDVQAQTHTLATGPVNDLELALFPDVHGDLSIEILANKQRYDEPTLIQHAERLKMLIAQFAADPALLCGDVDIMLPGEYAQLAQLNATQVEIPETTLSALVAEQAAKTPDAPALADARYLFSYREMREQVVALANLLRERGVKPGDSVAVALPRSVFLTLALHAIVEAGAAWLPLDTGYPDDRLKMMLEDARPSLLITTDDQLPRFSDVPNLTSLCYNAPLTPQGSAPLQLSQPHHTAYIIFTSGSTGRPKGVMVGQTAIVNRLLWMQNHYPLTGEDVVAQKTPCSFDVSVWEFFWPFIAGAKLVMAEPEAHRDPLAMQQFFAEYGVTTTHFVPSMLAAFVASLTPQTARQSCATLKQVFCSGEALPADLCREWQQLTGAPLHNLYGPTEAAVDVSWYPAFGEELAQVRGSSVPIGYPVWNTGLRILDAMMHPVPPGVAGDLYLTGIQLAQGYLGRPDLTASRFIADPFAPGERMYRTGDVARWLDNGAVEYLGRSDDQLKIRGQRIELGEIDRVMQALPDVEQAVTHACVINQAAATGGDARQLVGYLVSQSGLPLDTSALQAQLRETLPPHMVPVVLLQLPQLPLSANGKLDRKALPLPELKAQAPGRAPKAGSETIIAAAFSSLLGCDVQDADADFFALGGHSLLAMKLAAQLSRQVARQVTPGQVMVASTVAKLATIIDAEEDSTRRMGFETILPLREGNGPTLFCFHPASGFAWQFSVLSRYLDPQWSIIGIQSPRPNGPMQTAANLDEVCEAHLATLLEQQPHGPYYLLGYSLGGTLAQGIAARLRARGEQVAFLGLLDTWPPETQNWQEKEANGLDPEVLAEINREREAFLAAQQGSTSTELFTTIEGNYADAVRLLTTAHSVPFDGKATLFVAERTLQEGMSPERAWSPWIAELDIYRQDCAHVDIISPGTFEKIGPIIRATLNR
The next data set concerns the target H6-CmnO. Nature of the data set: co-purification after co-expression.
Substrate in data set [1]: O=C(O)c1cccc(O)c1O
Nature of the data set: substrate activation assay. The class given is biochemical, Escherichia coli. Particulars: without YbdZ.

Chain of EntF+YbdZ (P11454 whole entry): as above
Chain of EntF+YbdZ (P18393 2-72 partner limits assumed): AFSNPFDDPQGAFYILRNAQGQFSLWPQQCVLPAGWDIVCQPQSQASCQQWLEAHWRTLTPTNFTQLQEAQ

Regarding `N[C@@H](CO)C(=O)O` [L-Ser], the “Km ^a” value on EntF+YbdZ is listed as 655.9 ± 53.0, 240.1 ± 46.7 μM; at EntF (EntF-H6), 7162.1 ± 413.5, 4589.5 ± 313.0 μM.
CmnN (natural protein) showed a stoichiometry N (mol CmnN per mol H6-CmnO) with H6-CmnO of 0.42.

B1: EntE (H6-EntE) (Escherichia coli K-12) (protein)
chain: MSIPFTRWPEEFARRYREKGYWQDLPLTDILTRHAASDSIAVIDGERQLSYRELNQAADNLACSLRRQGIKPGETALVQLGNVAELYITFFALLKLGVAPVLALFSHQRSELNAYASQIEPALLIADRQHALFSGDDFLNTFVTEHSSIRVVQLLNDSGEHNLQDAINHPAEDFTATPSPADEVAYFQLSGGTTGTPKLIPRTHNDYYYSVRRSVEICQFTQQTRYLCAIPAAHNYAMSSPGSLGVFLAGGTVVLAADPSATLCFPLIEKHQVNVTALVPPAVSLWLQALIEGESRAQLASLKLLQVGGARLSATLAARIPAEIGCQLQQVFGMAEGLVNYTRLDDSAEKIIHTQGYPMCPDDEVWVADAEGNPLPQGEVGRLMTRGPYTFRGYYKSPQHNASAFDANGFYCSGDLISIDPEGYITVQGREKDQINRGGEKIAAEEIENLLLRHPAVIYAALVSMEDELMGEKSCAYLVVKEPLRAVQVRRFLREQGIAEFKLPDRVECVDSLPLTAVGKVDKKQLRQWLASRASA
As for B1, in data set [1], the Michaelis-Menten constant (Km) – broadly, the concentration of substrate that gives half-maximal velocity – came out at 2.9 ± 0.4 µM.
